Measured values from patent US8604217B2, “Compound, a process for its preparation, a pharmaceutical composition, use of a compound, a method for modulating or regulating serine/threonine kinases and a serine/threonine kinases modulating agent” (Selvita S.A., priority 2009, dated 2013).

Key:
Experiment in all cases: KinaseProfiler kinase panel
Aurora-A(h) = Aurora-A(h) (Homo sapiens (Human), UniProt O14965); type: biochemical
Abl(T315I)(h) = Abl(T315I)(h) (Homo sapiens (Human), UniProt P00519, T315I); type: biochemical
Met(Y1248H)(h) = Met(Y1248H)(h) (Homo sapiens (Human), UniProt P08581, Y1248H); type: biochemical
CHK2(R145W)(h) = CHK2(R145W)(h) (Homo sapiens (Human), UniProt O96017, R145W); type: biochemical
CDK6/cyclinD3(h) = CDK6/cyclinD3(h) (Homo sapiens (Human), UniProt Q00534); type: biochemical
NEK2(h) = NEK2(h) (Homo sapiens (Human), UniProt P51955); type: biochemical
PAK6(h) = PAK6(h) (Homo sapiens (Human), UniProt Q9NQU5); type: biochemical
CaMKIIδ(h) = CaMKIIδ(h) (Homo sapiens (Human), UniProt Q13557); type: biochemical
CLK3(h) = CLK3(h) (Homo sapiens (Human), UniProt P49761); type: biochemical
Tie2 (h) = Tie2 (h) (Homo sapiens (Human), UniProt Q02763); type: biochemical
Ron(h) = Ron(h) (Homo sapiens (Human), UniProt Q04912); type: biochemical
Snk(h) = Snk(h) (Homo sapiens (Human), UniProt Q9NYY3); type: biochemical
Flt4(h) = Flt4(h) (Homo sapiens (Human), UniProt P35916); type: biochemical
Tie2(R849W)(h) = Tie2(R849W)(h) (Homo sapiens (Human), UniProt Q02763, R849W); type: biochemical
Hck(h) = Hck(h) (Homo sapiens (Human), UniProt P08631); type: biochemical
DAPK1(h) = DAPK1(h) (Homo sapiens (Human), UniProt P53355); type: biochemical
PAR-1Bα(h) = PAR-1Bα(h) (Homo sapiens (Human), UniProt Q7KZI7); type: biochemical
Tie2(Y897S)(h) = Tie2(Y897S)(h) (Homo sapiens (Human), UniProt Q02763, Y897S); type: biochemical
TLK2(h) = TLK2(h) (Homo sapiens (Human), UniProt Q86UE8); type: biochemical
Ret(h) = Ret(h) (Homo sapiens (Human), UniProt P07949); type: biochemical
PKCβII(h) = PKCβII(h) (Homo sapiens (Human), UniProt P05771); type: biochemical
TAO2(h) = TAO2(h) (Homo sapiens (Human), UniProt Q9UL54); type: biochemical
Rse(h) = Rse(h) (Homo sapiens (Human), UniProt Q06418); type: biochemical
MLCK(h) = type: biochemical, human; conditions: 1 μM
EphB4(h) = EphB4(h) (Homo sapiens (Human), UniProt P54760); type: biochemical
Aurora-B(h) = Aurora-B(h) (Homo sapiens (Human), UniProt Q96GD4); type: biochemical
SGK3(h) = SGK3(h) (Homo sapiens (Human), UniProt Q96BR1); type: biochemical
FGFR2(N549H)(h) = FGFR2(N549H)(h) (Homo sapiens (Human), UniProt P21802, N549H); type: biochemical
VRK2(h) = VRK2(h) (Homo sapiens (Human), UniProt Q86Y07); type: biochemical
MAPK2(m) = MAPK2(m) (Mus musculus (Mouse), UniProt P63085); type: biochemical
EphA4(h) = EphA4(h) (Homo sapiens (Human), UniProt P54764); type: biochemical
Rsk1(h) = Rsk1(h) (Homo sapiens (Human), UniProt Q15418); type: biochemical
IKKα(h) = IKKα(h) (Homo sapiens (Human), UniProt O15111); type: biochemical
TSSK1(h) = TSSK1(h) (Homo sapiens (Human), UniProt Q9BXA7); type: biochemical
HIPK3(h) = HIPK3(h) (Homo sapiens (Human), UniProt Q9H422); type: biochemical
IRAK4(h) = IRAK4(h) (Homo sapiens (Human), UniProt Q9NWZ3); type: biochemical
NLK(h) = NLK(h) (Homo sapiens (Human), UniProt Q9UBE8); type: biochemical
HIPK1(h) = HIPK1(h) (Homo sapiens (Human), UniProt Q86Z02); type: biochemical
STK33(h) = STK33(h) (Homo sapiens (Human), UniProt Q9BYT3); type: biochemical
GCK(h) = GCK(h) (Homo sapiens (Human), UniProt Q12851); type: biochemical
Sequence of GCK(h) (Q12851 whole entry): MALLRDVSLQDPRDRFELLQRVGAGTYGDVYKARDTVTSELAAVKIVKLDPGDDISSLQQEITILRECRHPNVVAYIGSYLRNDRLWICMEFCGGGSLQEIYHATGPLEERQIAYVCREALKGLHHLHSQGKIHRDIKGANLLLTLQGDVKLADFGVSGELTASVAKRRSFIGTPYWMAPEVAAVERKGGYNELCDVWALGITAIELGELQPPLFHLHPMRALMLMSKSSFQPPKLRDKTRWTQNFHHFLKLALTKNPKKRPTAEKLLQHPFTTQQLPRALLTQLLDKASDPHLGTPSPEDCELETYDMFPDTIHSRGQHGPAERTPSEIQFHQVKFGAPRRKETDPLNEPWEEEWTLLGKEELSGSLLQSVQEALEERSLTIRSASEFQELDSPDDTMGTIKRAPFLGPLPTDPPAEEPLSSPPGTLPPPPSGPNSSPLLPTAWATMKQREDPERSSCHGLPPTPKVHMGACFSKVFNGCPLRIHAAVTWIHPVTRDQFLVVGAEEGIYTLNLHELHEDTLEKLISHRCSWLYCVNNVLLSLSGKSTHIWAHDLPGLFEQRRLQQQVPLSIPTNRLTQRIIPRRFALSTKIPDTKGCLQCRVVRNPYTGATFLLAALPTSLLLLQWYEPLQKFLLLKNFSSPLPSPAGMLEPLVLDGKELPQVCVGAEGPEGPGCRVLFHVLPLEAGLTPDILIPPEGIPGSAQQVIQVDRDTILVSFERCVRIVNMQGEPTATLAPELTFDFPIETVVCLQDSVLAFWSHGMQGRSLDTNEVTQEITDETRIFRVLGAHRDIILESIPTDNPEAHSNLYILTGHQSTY

Sequence of TLK2(h) (Q86UE8 whole entry): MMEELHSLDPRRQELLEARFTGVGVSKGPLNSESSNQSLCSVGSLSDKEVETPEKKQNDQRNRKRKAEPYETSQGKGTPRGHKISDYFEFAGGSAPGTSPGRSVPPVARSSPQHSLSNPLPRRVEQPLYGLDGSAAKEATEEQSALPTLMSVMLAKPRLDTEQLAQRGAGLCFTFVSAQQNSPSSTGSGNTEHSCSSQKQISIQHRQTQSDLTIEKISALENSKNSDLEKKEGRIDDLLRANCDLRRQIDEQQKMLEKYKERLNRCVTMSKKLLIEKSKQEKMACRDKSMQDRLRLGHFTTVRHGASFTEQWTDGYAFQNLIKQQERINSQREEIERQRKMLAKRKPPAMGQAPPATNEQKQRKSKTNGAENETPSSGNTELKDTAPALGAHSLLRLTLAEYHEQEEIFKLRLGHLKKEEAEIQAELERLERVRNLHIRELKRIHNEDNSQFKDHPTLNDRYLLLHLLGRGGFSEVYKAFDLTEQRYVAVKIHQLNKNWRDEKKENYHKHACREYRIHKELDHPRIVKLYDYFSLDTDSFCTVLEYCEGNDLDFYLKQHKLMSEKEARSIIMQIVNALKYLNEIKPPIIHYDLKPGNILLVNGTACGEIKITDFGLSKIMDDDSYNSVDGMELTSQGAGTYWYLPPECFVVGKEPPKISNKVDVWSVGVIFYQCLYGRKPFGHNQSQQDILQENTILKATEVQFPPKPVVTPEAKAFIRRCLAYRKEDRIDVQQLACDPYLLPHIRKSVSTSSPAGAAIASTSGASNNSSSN
Sequence of Tie2(R849W)(h) (Q02763 23-1124 R849W): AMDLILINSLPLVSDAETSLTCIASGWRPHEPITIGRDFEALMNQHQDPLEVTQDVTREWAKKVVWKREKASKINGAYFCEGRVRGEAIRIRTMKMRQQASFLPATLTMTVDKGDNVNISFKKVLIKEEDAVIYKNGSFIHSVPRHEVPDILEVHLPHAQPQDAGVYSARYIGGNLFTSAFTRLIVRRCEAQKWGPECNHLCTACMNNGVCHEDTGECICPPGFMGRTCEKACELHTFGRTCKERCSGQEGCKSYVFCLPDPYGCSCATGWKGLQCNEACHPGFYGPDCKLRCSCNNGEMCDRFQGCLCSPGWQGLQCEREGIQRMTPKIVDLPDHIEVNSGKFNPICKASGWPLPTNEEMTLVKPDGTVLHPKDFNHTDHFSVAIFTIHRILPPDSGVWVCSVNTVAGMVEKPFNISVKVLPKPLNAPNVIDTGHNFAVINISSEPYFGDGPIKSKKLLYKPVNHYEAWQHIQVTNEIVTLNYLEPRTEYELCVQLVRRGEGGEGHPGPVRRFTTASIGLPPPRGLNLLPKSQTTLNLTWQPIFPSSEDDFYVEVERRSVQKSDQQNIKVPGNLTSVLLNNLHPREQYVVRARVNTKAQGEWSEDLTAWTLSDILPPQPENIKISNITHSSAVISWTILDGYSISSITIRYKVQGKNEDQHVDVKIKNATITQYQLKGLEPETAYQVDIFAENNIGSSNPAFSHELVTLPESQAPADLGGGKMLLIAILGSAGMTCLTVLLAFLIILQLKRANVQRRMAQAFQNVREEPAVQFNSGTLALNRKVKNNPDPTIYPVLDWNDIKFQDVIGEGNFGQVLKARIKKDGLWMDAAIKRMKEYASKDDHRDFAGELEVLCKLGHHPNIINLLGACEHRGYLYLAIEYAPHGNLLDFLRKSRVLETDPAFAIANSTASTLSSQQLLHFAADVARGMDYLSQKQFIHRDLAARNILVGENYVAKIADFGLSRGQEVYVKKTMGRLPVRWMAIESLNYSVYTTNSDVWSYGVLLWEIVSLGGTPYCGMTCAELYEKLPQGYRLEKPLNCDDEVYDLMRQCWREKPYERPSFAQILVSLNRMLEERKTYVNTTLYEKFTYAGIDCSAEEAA
Sequence of CaMKIIδ(h) (Q13557 whole entry): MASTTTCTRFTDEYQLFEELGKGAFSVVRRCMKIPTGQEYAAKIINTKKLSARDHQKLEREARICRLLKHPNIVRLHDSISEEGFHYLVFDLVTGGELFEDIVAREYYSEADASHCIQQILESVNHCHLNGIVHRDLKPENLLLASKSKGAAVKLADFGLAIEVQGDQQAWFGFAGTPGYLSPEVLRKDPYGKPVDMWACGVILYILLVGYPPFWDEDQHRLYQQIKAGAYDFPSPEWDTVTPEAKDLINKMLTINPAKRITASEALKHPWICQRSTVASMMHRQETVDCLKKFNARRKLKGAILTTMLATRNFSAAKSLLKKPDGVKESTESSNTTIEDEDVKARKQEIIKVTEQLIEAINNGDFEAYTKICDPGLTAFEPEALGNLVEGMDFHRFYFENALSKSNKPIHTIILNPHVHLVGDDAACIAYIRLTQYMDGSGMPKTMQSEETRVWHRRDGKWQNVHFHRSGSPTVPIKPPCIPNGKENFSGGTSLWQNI
Sequence of PAK6(h) (Q9NQU5 whole entry): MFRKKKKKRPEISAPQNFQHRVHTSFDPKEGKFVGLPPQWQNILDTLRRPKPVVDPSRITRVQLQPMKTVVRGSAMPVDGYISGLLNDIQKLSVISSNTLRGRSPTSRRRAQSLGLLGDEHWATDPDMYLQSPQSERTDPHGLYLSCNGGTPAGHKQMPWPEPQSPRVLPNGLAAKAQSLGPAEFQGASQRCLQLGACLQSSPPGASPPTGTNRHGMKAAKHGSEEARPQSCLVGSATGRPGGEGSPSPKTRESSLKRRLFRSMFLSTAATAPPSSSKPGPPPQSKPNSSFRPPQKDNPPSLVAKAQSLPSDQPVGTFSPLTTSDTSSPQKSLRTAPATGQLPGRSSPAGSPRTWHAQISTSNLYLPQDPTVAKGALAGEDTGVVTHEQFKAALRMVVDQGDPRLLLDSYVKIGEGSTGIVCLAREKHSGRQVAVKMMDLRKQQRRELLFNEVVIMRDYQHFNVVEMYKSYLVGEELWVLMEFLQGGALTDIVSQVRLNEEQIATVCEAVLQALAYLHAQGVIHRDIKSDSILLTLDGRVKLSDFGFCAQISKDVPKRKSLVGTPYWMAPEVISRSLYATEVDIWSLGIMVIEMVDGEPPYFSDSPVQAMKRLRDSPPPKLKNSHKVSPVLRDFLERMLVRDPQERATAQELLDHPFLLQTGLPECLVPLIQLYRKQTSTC
Sequence of Snk(h) (Q9NYY3 whole entry): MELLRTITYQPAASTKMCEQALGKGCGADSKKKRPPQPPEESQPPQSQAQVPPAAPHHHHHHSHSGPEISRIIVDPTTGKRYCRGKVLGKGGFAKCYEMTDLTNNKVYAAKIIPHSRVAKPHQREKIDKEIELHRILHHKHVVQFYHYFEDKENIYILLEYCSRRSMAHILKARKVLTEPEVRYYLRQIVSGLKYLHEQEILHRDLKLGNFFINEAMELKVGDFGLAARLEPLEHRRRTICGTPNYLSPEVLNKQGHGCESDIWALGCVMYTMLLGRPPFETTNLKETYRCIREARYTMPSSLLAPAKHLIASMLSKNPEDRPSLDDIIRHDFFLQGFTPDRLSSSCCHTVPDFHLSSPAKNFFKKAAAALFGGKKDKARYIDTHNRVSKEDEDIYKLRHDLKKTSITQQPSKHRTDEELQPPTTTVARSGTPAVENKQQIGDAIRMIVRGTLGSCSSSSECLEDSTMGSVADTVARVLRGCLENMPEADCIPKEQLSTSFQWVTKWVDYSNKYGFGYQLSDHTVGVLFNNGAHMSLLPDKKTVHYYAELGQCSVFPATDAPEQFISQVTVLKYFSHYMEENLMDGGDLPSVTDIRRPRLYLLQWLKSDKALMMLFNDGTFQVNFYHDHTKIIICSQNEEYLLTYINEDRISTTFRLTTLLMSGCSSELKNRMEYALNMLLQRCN
Sequence of SGK3(h) (Q96BR1 whole entry): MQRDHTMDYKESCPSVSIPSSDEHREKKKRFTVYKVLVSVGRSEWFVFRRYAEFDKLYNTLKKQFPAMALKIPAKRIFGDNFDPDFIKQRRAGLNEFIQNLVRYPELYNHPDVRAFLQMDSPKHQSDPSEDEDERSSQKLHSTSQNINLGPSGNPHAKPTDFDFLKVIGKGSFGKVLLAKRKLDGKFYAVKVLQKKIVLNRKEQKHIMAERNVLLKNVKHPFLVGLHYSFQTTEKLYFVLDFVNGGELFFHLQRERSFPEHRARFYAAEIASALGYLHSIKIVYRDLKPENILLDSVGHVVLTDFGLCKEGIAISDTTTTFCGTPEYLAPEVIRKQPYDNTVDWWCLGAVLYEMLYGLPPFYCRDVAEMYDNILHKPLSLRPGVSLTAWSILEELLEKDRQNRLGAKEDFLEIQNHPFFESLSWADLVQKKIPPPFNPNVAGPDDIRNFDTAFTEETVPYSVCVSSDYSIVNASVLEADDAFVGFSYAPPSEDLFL

remaining activity at 1 µM (Aurora-A(h)): 125% | remaining activity at 1 µM (Abl(T315I)(h)): 92% | remaining activity at 1 µM (Met(Y1248H)(h)): 70% | remaining activity at 1 µM (CHK2(R145W)(h)): 76% | remaining activity at 1 µM (CDK6/cyclinD3(h)): 91% | remaining activity at 1 µM (NEK2(h)): 91% | remaining activity at 1 µM (PAK6(h)): 85% | remaining activity at 1 µM (CaMKIIδ(h)): 28% | remaining activity at 1 µM (CLK3(h)): 82% | remaining activity at 1 µM (Tie2 (h)): 92% | remaining activity at 1 µM (Ron(h)): 108% | remaining activity at 1 µM (Snk(h)): 90% | remaining activity at 1 µM (Flt4(h)): 17% | remaining activity at 1 µM (Tie2(R849W)(h)): 101% | remaining activity at 1 µM (Hck(h)): 79% | remaining activity at 1 µM (DAPK1(h)): 100% | remaining activity at 1 µM (PAR-1Bα(h)): 85% | remaining activity at 1 µM (Tie2(Y897S)(h)): 91% | remaining activity at 1 µM (TLK2(h)): 104% | remaining activity at 1 µM (Ret(h)): 27% | remaining activity at 1 µM (PKCβII(h)): 98% | remaining activity at 1 µM (TAO2(h)): 82% | remaining activity at 1 µM (Rse(h)): 105% | % remaining activity (MLCK(h)): 88% | remaining activity at 1 µM (EphB4(h)): 100% | remaining activity at 1 µM (Aurora-B(h)): 80% | remaining activity at 1 µM (SGK3(h)): 92% | remaining activity at 1 µM (FGFR2(N549H)(h)): 101% | remaining activity at 1 µM (VRK2(h)): 103% | remaining activity at 1 µM (MAPK2(m)): 82% | remaining activity at 1 µM (EphA4(h)): 99% | remaining activity at 1 µM (Rsk1(h)): 56% | remaining activity at 1 µM (IKKα(h)): 56% | remaining activity at 1 µM (TSSK1(h)): 96% | remaining activity at 1 µM (HIPK3(h)): -1% | remaining activity at 1 µM (IRAK4(h)): 52% | remaining activity at 1 µM (NLK(h)): 85% | remaining activity at 1 µM (HIPK1(h)): 8% | remaining activity at 1 µM (STK33(h)): 66% | remaining activity at 1 µM (GCK(h)): 75%
Compound: CCn1c(N2CCNCC2)nc2c(Br)c(Br)c(Br)c(Br)c21 [Compound 416, 4,5,6,7-tetrabromo-1-ethyl-2-(piperazin-1-yl)-1H-benzo[d]imidazole]
